Test results: patent US7550485B2, “Substituted N-heterocycle derivatives and methods of their use” (Wyeth, priority 2003, dated 2009)
Structures can show the parent of a compound that is named as a salt.

Biological target: T1, hNET (Homo sapiens, UniProt P23975)
T1 construct: expressed in transfected cells
Assay: Norepinephrine (NE) uptake assay in MDCK-Net6 cells stably transfected with human hNET
Assay type: cell-based
Settings: MDCK-Net6, 1 μM test compound, [3H]NE uptake
Outline: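 MDCK-Net6 cells preincubated 20 min at 37 °C with compound (1 to 10,000 nM) in HEPES buffer pH 7.4 with pargyline and ascorbate, then 5 min [3H]NE uptake (120 nM final). Lysed cells counted by scintillation; 1 μM desipramine defined minimum uptake; EC50 from logistic fit of pooled data.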

T1 sequence (P23975 whole entry): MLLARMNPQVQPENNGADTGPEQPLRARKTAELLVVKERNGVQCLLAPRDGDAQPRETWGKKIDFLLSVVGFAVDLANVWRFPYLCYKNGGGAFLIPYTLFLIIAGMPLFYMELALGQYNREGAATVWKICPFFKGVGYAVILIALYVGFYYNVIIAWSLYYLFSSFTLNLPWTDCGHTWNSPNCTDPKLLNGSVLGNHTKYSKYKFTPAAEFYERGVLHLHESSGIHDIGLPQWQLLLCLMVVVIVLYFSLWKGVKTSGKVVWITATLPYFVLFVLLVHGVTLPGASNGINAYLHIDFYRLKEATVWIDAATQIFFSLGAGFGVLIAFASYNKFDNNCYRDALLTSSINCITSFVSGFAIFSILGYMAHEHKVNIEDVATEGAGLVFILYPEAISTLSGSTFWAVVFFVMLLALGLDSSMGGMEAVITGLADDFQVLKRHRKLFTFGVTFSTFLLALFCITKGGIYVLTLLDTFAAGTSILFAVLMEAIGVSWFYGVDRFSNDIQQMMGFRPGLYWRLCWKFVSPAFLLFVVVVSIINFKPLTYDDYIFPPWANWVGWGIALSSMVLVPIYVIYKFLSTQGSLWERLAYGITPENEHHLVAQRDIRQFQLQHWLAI

inhibition at 1 µM	SMILES
67.5%	OC1(C(CN2CCC(N3CCCC3)CC2)c2cccc(Oc3ccccc3)c2)CCCCC1 (centres unmarked) [Example 316, 1-[1-(3-phenoxyphenyl)-2-(4-pyrrolidin-1-ylpiperidin-1-yl)ethyl]cyclohexanol dihydrochloride]
87.3%	CN(C)C1CCN(CC(c2cccc(Cl)c2)C2CCCC2)CC1 (centres unmarked) [Example 229, 1-[2-(3-chlorophenyl)-2-cyclopentylethyl]-N,N-dimethylpiperidin-4-amine dihydrochloride]
